We go through nine compounds from DBAASP.

≈ marks a conversion by molar mass, not a printed value.

Experiment in all cases: ≥ marks a high value that may be exact or a test limit, other limits are often not marked, values filed in µg/mL are converted to µM
Assay [1] concerns Candida albicans ATCC 2002.
In assay [2] the test system is Escherichia coli ATCC 25922.
Assay [3] deals with Pseudomonas aeruginosa CMCCB 10104.
For assay [4], the system named is Staphylococcus aureus ATCC 25923.
Another assay deals with Bacillus subtilis.
The subject of assay [5] is Candida parapsilosis ATCC 22019.
Assay [6] relates to Staphylococcus epidermidis ATCC 12228.

As to `CC[C@H](C)[C@H](NC(=O)CNC(=O)[C@H](CCCCN)NC(=O)CNC(=O)[C@@H](NC(=O)[C@H](Cc1ccccc1)NC(=O)[C@H](CCCCN)NC(=O)[C@H](CO)NC(=O)[C@H](Cc1ccccc1)NC(=O)[C@H](CC(C)C)NC(=O)CN)C(C)C)C(=O)N[C@@H](CCCCN)C(=O)N[C@@H](CC(N)=O)C(=O)N[C@@H](Cc1ccccc1)C(=O)N[C@@H](CC(C)C)C(=O)N[C@H](C(=O)N[C@@H](CCCCN)C(=O)NCC(=O)N[C@H](C(=O)N[C@@H](CCCCN)C(=O)N[C@@H](Cc1cnc[nH]1)C(=O)N[C@H](C(=O)NCC(=O)N[C@@H](CCCCN)C(=O)N[C@@H](CCC(=O)O)C(=O)N[C@H](C(=O)NCC(=O)N[C@@H](CCSC)C(=O)N[C@@H](CC(=O)O)C(=O)N[C@H](C(=O)N[C@H](C(=O)N[C@@H](CCCN=C(N)N)C(=O)N[C@H](C(=O)NCC(=O)N[C@H](C(=O)N[C@@H](CC(=O)O)C(=O)N[C@H](C(=O)N[C@@H](C)C(=O)NCC(=O)N[C@H]1CSSC[C@@H](C(=O)O)NC(=O)[C@H](C(C)C)NC(=O)CNC(=O)[C@H](CCCCN)NC(=O)[C@H]([C@@H](C)CC)NC(=O)[C@H](CCCCN)NC1=O)C(C)C)[C@@H](C)CC)C(C)C)[C@@H](C)CC)C(C)C)C(C)C)[C@@H](C)CC)C(C)C)[C@@H](C)CC` [GLFSKFVGKGIKNFLIKGVKHIGKEVGMDVIRVGIDVAGCKIKGVC], the MIC in assay [1] was 0.494 µM (≈ 2.4 µg/mL); in assay [2] it was 0.247 µM (≈ 1.2 µg/mL); in assay [3], 0.247 µM (≈ 1.2 µg/mL); in assay [4] it was 0.247 µM (≈ 1.2 µg/mL).

For the compound `CC[C@H](C)[C@@H]1NC(=O)[C@H](CCCCN)NC(=O)[C@@H](NC(=O)[C@H](CCCCN)NC(=O)[C@H](CC(C)C)NC(=O)[C@H](CC(N)=O)NC(=O)[C@H](CC(=O)O)NC(=O)[C@H](CC(C)C)NC(=O)[C@H](CC(C)C)NC(=O)[C@H](CC(N)=O)NC(=O)CNC(=O)[C@H](C)NC(=O)[C@H](CCSC)NC(=O)[C@H](CC(N)=O)NC(=O)[C@H](CCCCN)NC(=O)[C@H](C)NC(=O)[C@@H](NC(=O)[C@H](CC(N)=O)NC(=O)[C@H](CCCCN)NC(=O)[C@H](C)NC(=O)[C@@H](NC(=O)[C@H](CC(=O)O)NC(=O)[C@H](CCSC)NC(=O)[C@H](Cc2ccccc2)NC(=O)CN)[C@@H](C)O)C(C)C)CSSC[C@@H](C(=O)O)NC(=O)[C@H](C)NC(=O)[C@H](CCCCN)NC(=O)[C@H]([C@@H](C)O)NC1=O` [GFMDTAKNVAKNMAGNLLDNLKCKITKAC], the MIC in assay [1] was 0.803 µM (≈ 2.5 µg/mL); in assay [2], 1.61 µM (≈ 5 µg/mL); in assay [3], 3.21 µM (≈ 9.99 µg/mL); in assay [4], 0.803 µM (≈ 2.5 µg/mL).

On to `C[C@@H](O)[C@H](NC(=O)[C@H](CO)NC(=O)[C@H](Cc1ccccc1)NC(=O)[C@@H](N)Cc1ccccc1)C(=O)N[C@@H](CO)C(=O)N[C@H]1CSSC[C@@H](C(=O)O)NC(=O)CNC(=O)[C@H](CO)NC(=O)[C@H](CCCN=C(N)N)NC1=O` [FFSTSCRSGC], for which the MIC was ≥ 91.4 µM in assay [1], > 91.4 µM in assay [2], ≥ 91.4 µM in assay [3] and > 91.4 µM in assay [4].

Turning to `CC[C@H](C)[C@H](NC(=O)[C@H](CC(C)C)NC(=O)[C@H](CC(C)C)NC(=O)[C@H](CC(=O)O)NC(=O)[C@H](CCCCN)NC(=O)[C@@H](NC(=O)[C@@H](NC(=O)CNC(=O)[C@H](CCSC)NC(=O)[C@@H](NC(=O)[C@@H](N)CO)C(C)C)[C@@H](C)O)C(C)C)C(=O)NCC(=O)N[C@@H](C)C(=O)NCC(=O)N[C@@H](CCCCN)C(=O)N[C@@H](CO)C(=O)N[C@@H](C)C(=O)N[C@@H](C)C(=O)N[C@@H](CCC(N)=O)C(=O)N[C@@H](CO)C(=O)N[C@H](C(=O)N[C@@H](CC(C)C)C(=O)N[C@@H](CCCCN)C(=O)N[C@@H](C)C(=O)N[C@@H](CC(C)C)C(=O)N[C@@H](CO)C(=O)N[C@H]1CSSC[C@@H](C(=O)O)NC(=O)[C@H](CC(=O)O)NC(=O)[C@H](CCCCN)NC(=O)[C@H](CO)NC(=O)[C@H](CC(C)C)NC(=O)[C@H](CCCCN)NC1=O)C(C)C` [SVMGTVKDLLIGAGKSAAQSVLKALSCKLSKDC], the MIC in assay [1] was 3.16 µM (≈ 10.5 µg/mL); in assay [2], 3.16 µM (≈ 10.5 µg/mL); in assay [3] it was 6.32 µM (≈ 21 µg/mL); in assay [4], 3.16 µM (≈ 10.5 µg/mL).

Regarding `CC[C@H](C)[C@H](NC(=O)[C@H](CC(C)C)NC(=O)[C@H](CCC(N)=O)NC(=O)[C@@H](NC(=O)[C@H](C)NC(=O)CNC(=O)[C@H](CCCCN)NC(=O)[C@@H](NC(=O)[C@H](CC(C)C)NC(=O)[C@@H](NC(=O)[C@H](Cc1ccccc1)NC(=O)[C@@H](NC(=O)CN)C(C)C)[C@@H](C)O)[C@@H](C)CC)[C@@H](C)O)C(=O)NCC(=O)N[C@@H](CCCCN)C(=O)N[C@H](C(=O)N[C@@H](CC(C)C)C(=O)NCC(=O)N[C@@H](CCCCN)C(=O)N[C@@H](CCC(=O)O)C(=O)N[C@H](C(=O)NCC(=O)N[C@@H](CCCCN)C(=O)N[C@H](C(=O)NCC(=O)N[C@@H](CC(C)C)C(=O)N[C@@H](CCC(=O)O)C(=O)N[C@@H](CC(C)C)C(=O)N[C@@H](CCSC)C(=O)N[C@@H](C)C(=O)N[C@H]1CSSC[C@@H](C(=O)O)NC(=O)[C@H](CCC(N)=O)NC(=O)[C@H](CCCCN)NC(=O)[C@H]([C@@H](C)O)NC(=O)[C@H]([C@@H](C)CC)NC(=O)[C@H](CCCCN)NC1=O)[C@@H](C)O)C(C)C)[C@@H](C)O` [GVFTLIKGATQLIGKTLGKEVGKTGLELMACKITKQC], the minimum inhibitory concentration (MIC) worked out at 2.09 µM (≈ 8.1 µg/mL) in assay [1], 2.09 µM (≈ 8.1 µg/mL) in assay [2], 4.18 µM (≈ 16.2 µg/mL) in assay [3] and 1.06 µM (≈ 4.1 µg/mL) in assay [4].

`CC[C@H](C)[C@H](NC(=O)[C@H](CC(C)C)NC(=O)[C@H](CC(C)C)NC(=O)[C@H](CC(=O)O)NC(=O)[C@H](CCCCN)NC(=O)[C@@H](NC(=O)[C@@H](NC(=O)CNC(=O)[C@H](CCSC)NC(=O)[C@@H](NC(=O)[C@@H](N)CO)C(C)C)[C@@H](C)O)C(C)C)C(=O)NCC(=O)N[C@@H](C)C(=O)NCC(=O)N[C@@H](CCCCN)C(=O)N[C@@H](CO)C(=O)N[C@@H](C)C(=O)N[C@@H](C)C(=O)N[C@@H](CCC(N)=O)C(=O)N[C@@H](CO)C(=O)N[C@H](C(=O)N[C@@H](CC(C)C)C(=O)N[C@@H](CCCCN)C(=O)N[C@@H](CO)C(=O)N[C@@H](CC(C)C)C(=O)N[C@@H](CO)C(=O)N[C@H]1CSSC[C@@H](C(=O)O)NC(=O)[C@H](CC(=O)O)NC(=O)[C@H](CC(N)=O)NC(=O)[C@H](CO)NC(=O)[C@H]([C@@H](C)CC)NC(=O)[C@H](CCCCN)NC1=O)C(C)C` [SVMGTVKDLLIGAGKSAAQSVLKSLSCKISNDC]: the MIC in assay [1] came to 1.41 µM (≈ 4.7 µg/mL); in assay [2], 1.41 µM (≈ 4.7 µg/mL); in assay [3] it was 1.41 µM (≈ 4.7 µg/mL); in assay [4], 2.83 µM (≈ 9.39 µg/mL).

With `CC[C@H](C)[C@H](NC(=O)[C@H](C)NC(=O)[C@H](CCCN=C(N)N)NC(=O)[C@H](Cc1ccc(O)cc1)NC(=O)[C@H](CC(C)C)NC(=O)[C@H](CC(N)=O)NC(=O)[C@H](Cc1ccc(O)cc1)NC(=O)CNC(=O)[C@H](C)NC(=O)[C@@H](NC(=O)[C@@H](NC(=O)[C@@H](NC(=O)[C@H](CCCN=C(N)N)NC(=O)[C@@H](NC(=O)[C@@H](NC(=O)[C@@H](NC(=O)[C@@H]1CCCN1C(=O)[C@H](Cc1c[nH]c2ccccc12)NC(=O)[C@H](Cc1ccccc1)NC(=O)[C@@H](N)CCCN=C(N)N)C(C)C)C(C)C)[C@@H](C)CC)[C@@H](C)O)C(C)C)C(C)C)C(=O)N[C@@H](CCCCN)C(=O)N[C@@H](CCCCN)C(=O)N[C@@H](CCCCN)C(=O)O` [RFWPVVIRTVVAGYNLYRAIKKK], the MIC in the assay on Bacillus subtilis worked out at 2.53 µM (≈ 7.03 µg/mL); in assay [1], 0.211 µM (≈ 0.586 µg/mL); in assay [2], 7.11 µM (≈ 19.8 µg/mL); in assay [4], 0.422 µM (≈ 1.17 µg/mL).

`CC[C@H](C)[C@@H]1NC(=O)[C@H](CCCCN)NC(=O)[C@@H](NC(=O)[C@H](CCCCN)NC(=O)[C@H](CC(C)C)NC(=O)[C@H](CC(N)=O)NC(=O)[C@H](CC(=O)O)NC(=O)[C@H](CC(C)C)NC(=O)[C@H](CC(C)C)NC(=O)[C@@H](NC(=O)[C@@H](NC(=O)[C@H](C)NC(=O)[C@H](CCSC)NC(=O)[C@H](CC(N)=O)NC(=O)[C@H](CCCCN)NC(=O)[C@H](C)NC(=O)[C@@H](NC(=O)[C@H](CC(N)=O)NC(=O)[C@H](CCCCN)NC(=O)[C@H](C)NC(=O)[C@@H](NC(=O)[C@H](CC(=O)O)NC(=O)[C@H](CCSC)NC(=O)[C@H](Cc2ccccc2)NC(=O)CN)[C@@H](C)O)C(C)C)C(C)C)[C@@H](C)O)CSSC[C@@H](C(=O)O)NC(=O)[C@H](C)NC(=O)[C@H](CCCCN)NC(=O)[C@H]([C@@H](C)O)NC1=O` [GFMDTAKNVAKNMAVTLLDNLKCKITKAC]: the MIC in assay [1] was found to be 1.21 µM (≈ 3.8 µg/mL); in assay [2], 2.39 µM (≈ 7.5 µg/mL); in assay [3], 2.39 µM (≈ 7.5 µg/mL); in assay [4] it was 1.21 µM (≈ 3.8 µg/mL).

For the compound `CC[C@H](C)[C@H](NC(=O)[C@H](C)NC(=O)CNC(=O)[C@H](CC(C)C)NC(=O)[C@@H](N)Cc1ccccc1)C(=O)N[C@@H](C)C(=O)N[C@@H](CCC(N)=O)C(=O)N[C@@H](C)C(=O)N[C@@H](CC(C)C)C(=O)N[C@H](C(=O)N[C@@H](CO)C(=O)N[C@@H](CC(C)C)C(=O)N[C@@H](CC(C)C)C(=O)NCC(=O)N[C@@H](CCCCN)C(=O)N[C@@H](CC(C)C)C(N)=O)[C@@H](C)O` [FLGAIAQALTSLLGKL], the MIC was ≥ 64 µM in assay [5], > 128 µM in assay [2] and 8 µM (≈ 12.9 µg/mL) in assay [6].

In general, MIC refers to the lowest concentration found to suppress growth.
